From US11730712B2, “Functionalized long-chain hydrocarbon mono- and di-carboxylic acids and derivatives thereof, and their use for the prevention or treatment of disease” (ESPERVITA THERAPEUTICS, INC., priority 2021, dated 2023)
Where “and” joins values, the source holds several entries; their conditions need not be identical. Equal values may be shown once.

Experiments:
Assay in all cases: Kinase assay, wild type kinases
Type in all cases: biochemical
Aurora B = Aurora B (Homo sapiens, UniProt Q96GD4); conditions: compound 10 μM, 10 μM ATP, duplicate (Data 1, Data 2), >100 activation, <100 inhibition; for remaining activity at 10 µM: read-out: % Enzyme Activity (relative to DMSO controls), Aurora B
Sequence of Aurora B (Q96GD4 whole entry): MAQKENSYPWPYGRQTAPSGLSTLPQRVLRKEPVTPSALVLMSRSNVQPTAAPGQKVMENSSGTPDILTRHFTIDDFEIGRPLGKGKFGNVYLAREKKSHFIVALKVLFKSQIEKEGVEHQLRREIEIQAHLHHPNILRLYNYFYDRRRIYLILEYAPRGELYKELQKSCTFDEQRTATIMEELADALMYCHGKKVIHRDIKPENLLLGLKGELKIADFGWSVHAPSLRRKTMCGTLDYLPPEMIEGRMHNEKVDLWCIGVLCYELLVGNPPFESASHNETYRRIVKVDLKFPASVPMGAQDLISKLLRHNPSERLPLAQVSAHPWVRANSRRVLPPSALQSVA

PIM3 = PIM3 (Homo sapiens, UniProt Q86V86); conditions: compound 10 μM, 10 μM ATP, duplicate (Data 1, Data 2), >100 activation, <100 inhibition; for remaining activity at 10 µM: read-out: % Enzyme Activity (relative to DMSO controls), PIM3
FLT1/VEGFR1 = FLT1/VEGFR1 (Homo sapiens, UniProt P17948); conditions: compound 10 μM, 10 μM ATP, duplicate (Data 1, Data 2), >100 activation, <100 inhibition; for remaining activity at 10 µM: read-out: % Enzyme Activity (relative to DMSO controls), FLT1/VEGFR1
Sequence of FLT1/VEGFR1 (P17948 27-1338): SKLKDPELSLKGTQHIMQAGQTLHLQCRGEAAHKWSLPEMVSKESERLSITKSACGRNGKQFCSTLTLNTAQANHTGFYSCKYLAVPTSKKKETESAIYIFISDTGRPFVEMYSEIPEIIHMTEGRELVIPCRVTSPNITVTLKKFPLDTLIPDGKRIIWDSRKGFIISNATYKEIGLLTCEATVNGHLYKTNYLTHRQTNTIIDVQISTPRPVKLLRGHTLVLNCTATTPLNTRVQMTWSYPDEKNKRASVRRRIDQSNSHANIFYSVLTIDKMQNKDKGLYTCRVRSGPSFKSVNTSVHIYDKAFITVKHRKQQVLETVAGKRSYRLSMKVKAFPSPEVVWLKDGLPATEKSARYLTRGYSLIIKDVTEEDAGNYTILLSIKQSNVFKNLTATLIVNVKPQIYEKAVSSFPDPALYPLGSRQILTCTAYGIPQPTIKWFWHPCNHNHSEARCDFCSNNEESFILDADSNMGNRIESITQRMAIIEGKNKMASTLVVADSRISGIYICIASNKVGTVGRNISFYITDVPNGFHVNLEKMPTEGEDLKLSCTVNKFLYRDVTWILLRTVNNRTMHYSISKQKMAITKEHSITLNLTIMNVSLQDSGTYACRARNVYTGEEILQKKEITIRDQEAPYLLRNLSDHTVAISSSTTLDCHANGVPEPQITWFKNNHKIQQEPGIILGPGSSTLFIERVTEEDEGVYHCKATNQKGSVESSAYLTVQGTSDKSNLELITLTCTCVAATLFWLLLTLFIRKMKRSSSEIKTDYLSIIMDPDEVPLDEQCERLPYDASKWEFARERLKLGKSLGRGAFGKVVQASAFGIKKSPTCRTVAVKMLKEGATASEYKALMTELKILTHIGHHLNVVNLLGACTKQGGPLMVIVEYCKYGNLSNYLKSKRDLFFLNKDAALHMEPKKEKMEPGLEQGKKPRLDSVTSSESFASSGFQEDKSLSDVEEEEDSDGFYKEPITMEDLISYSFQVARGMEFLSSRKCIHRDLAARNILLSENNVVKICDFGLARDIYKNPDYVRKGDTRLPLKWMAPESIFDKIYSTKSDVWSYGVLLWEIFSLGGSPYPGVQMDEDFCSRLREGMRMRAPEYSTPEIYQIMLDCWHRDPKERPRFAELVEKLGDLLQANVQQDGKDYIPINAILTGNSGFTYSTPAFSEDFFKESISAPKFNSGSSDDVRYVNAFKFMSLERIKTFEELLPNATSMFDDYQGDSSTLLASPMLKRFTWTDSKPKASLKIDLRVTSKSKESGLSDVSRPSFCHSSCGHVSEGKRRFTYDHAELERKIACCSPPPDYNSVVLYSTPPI

DDR2 = molecular target: T1, DDR2 (Homo sapiens, UniProt Q16832); conditions: compound 10 μM, 10 μM ATP, duplicate (Data 1, Data 2), >100 activation, <100 inhibition; for remaining activity at 10 µM: read-out: % Enzyme Activity (relative to DMSO controls), DDR2
T1 sequence (Q16832 22-855): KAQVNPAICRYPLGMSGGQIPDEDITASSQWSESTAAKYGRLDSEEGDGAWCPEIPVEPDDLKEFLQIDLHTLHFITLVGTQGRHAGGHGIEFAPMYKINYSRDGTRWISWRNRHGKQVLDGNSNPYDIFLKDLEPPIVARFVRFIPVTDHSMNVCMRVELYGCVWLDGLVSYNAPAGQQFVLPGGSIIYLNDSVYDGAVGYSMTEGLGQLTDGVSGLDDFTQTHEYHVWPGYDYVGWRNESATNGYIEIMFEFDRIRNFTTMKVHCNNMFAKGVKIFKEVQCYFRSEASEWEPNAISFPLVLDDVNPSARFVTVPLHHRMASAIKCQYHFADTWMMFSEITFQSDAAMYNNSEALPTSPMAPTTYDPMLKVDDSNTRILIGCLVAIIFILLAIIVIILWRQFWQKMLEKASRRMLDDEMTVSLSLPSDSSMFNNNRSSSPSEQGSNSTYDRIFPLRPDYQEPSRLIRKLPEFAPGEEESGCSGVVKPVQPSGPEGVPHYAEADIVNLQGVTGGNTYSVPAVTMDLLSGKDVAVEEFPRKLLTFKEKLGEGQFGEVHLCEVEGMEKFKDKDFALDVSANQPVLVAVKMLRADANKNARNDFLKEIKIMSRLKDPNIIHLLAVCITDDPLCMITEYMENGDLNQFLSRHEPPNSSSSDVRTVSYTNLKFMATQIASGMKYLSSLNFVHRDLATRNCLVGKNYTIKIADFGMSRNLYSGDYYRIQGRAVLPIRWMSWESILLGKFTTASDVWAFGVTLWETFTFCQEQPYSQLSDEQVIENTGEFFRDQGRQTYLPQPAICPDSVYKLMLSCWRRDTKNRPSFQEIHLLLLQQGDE

ERK7/MAPK15 = molecular target: T2, ERK7/MAPK15 (Homo sapiens, UniProt Q8TD08); conditions: compound 10 μM, 10 μM ATP, duplicate (Data 1, Data 2), >100 activation, <100 inhibition; for remaining activity at 10 µM: read-out: % Enzyme Activity (relative to DMSO controls), ERK7/MAPK15
T2 sequence (Q8TD08 1-544): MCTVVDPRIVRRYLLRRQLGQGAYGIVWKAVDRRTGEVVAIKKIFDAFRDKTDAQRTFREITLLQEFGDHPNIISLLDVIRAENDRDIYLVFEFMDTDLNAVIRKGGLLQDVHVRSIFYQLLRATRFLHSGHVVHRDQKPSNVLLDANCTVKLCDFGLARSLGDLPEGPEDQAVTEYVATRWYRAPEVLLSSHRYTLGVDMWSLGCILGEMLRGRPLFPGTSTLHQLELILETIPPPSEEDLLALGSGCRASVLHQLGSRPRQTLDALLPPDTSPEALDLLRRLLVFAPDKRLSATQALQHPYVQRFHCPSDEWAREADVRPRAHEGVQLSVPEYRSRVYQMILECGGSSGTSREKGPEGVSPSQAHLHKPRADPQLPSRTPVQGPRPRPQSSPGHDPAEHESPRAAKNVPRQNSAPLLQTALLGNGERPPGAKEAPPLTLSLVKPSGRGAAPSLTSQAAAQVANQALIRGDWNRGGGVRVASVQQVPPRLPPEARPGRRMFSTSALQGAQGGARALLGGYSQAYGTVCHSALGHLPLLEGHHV

AURORA C = molecular target: T3, AURORA C (Homo sapiens, UniProt Q9UQB9); conditions: compound 10 μM, 10 μM ATP, duplicate (Data 1, Data 2), >100 activation, <100 inhibition; for remaining activity at 10 µM: read-out: % Enzyme Activity (relative to DMSO controls), AURORA C
T3 sequence (Q9UQB9 1-309): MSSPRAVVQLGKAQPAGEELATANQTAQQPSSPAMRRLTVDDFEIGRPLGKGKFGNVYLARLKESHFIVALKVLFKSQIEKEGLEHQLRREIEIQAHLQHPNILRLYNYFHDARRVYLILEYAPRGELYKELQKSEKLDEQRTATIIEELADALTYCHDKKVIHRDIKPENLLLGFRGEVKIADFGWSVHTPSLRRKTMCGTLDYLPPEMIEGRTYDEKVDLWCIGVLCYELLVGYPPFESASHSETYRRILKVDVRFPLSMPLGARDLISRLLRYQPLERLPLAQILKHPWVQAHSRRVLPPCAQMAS

c-Kit = c-Kit (Homo sapiens, UniProt P10721); conditions: compound 10 μM, 10 μM ATP, duplicate (Data 1, Data 2), >100 activation, <100 inhibition; for remaining activity at 10 µM: read-out: % Enzyme Activity (relative to DMSO controls), c-Kit
Sequence of c-Kit (P10721 26-976): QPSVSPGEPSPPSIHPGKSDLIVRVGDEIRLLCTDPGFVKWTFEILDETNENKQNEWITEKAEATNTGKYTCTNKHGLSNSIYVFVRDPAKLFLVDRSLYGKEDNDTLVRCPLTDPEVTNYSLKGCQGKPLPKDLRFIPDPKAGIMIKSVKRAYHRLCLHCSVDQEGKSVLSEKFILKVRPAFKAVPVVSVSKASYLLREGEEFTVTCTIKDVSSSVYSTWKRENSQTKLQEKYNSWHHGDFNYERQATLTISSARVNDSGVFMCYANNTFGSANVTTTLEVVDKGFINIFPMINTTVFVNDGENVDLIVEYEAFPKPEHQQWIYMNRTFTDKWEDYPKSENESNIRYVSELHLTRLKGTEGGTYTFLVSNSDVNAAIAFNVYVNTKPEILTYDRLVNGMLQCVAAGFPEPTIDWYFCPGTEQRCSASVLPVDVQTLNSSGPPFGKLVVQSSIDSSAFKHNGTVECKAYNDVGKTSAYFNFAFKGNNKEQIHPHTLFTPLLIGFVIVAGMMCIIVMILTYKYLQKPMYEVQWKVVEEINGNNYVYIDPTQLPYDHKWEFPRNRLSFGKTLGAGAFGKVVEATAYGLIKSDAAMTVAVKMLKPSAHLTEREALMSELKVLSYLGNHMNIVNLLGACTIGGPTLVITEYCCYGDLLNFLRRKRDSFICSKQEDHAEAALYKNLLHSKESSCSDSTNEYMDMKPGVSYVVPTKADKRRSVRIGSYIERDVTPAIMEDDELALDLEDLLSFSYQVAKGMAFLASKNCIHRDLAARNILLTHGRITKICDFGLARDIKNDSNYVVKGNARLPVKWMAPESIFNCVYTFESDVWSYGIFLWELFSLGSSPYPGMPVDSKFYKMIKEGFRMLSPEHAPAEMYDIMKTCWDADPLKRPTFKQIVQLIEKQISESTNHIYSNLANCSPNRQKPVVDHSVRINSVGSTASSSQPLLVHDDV

LIMK1 = LIMK1 (Homo sapiens, UniProt P53667); conditions: compound 10 μM, 10 μM ATP, duplicate (Data 1, Data 2), >100 activation, <100 inhibition; for remaining activity at 10 µM: read-out: % Enzyme Activity (relative to DMSO controls), LIMK1
Sequence of LIMK1 (P53667 whole entry, species assumed): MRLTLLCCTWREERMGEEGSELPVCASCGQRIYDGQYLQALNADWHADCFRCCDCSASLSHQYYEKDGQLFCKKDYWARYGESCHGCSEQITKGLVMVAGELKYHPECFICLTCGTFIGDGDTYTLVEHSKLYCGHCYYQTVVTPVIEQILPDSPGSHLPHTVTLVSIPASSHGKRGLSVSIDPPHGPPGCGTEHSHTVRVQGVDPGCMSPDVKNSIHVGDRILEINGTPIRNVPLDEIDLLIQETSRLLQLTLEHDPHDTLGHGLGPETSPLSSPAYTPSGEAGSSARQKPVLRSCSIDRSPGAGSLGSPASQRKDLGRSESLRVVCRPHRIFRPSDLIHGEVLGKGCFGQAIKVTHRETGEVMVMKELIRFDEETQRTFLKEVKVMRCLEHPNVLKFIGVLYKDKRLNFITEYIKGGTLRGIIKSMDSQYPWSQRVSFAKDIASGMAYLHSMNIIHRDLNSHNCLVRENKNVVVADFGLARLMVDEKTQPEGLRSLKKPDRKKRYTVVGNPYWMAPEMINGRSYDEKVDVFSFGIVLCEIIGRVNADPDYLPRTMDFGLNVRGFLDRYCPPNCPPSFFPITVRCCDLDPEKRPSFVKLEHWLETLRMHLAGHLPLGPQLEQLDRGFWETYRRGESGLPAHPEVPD

SMILES | remaining activity at 10 µM (Aurora B) [%] | remaining activity at 10 µM (PIM3) [%] | remaining activity at 10 µM (FLT1/VEGFR1) [%] | remaining activity at 10 µM (DDR2) [%] | remaining activity at 10 µM (ERK7/MAPK15) [%] | remaining activity at 10 µM (AURORA C) [%] | remaining activity at 10 µM (c-Kit) [%] | remaining activity at 10 µM (LIMK1) [%] | % Enzyme Activity (relative to DMSO controls), Aurora B (Aurora B) | % Enzyme Activity (relative to DMSO controls), PIM3 (PIM3) | % Enzyme Activity (relative to DMSO controls), FLT1/VEGFR1 (FLT1/VEGFR1) | % Enzyme Activity (relative to DMSO controls), DDR2 (DDR2) | % Enzyme Activity (relative to DMSO controls), ERK7/MAPK15 (ERK7/MAPK15) | % Enzyme Activity (relative to DMSO controls), AURORA C (AURORA C) | % Enzyme Activity (relative to DMSO controls), c-Kit (c-Kit) | % Enzyme Activity (relative to DMSO controls), LIMK1 (LIMK1)
CC(C)(CCCCc1ccc(CCCCC(C)(C)C(=O)O)cc1)C(=O)O [Compound I-1, 6-[4-(5-carboxy-5-methylhexyl)-phenyl]-2,2-dimethylhexanoic acid] | 69 | 87.9 | 90.3 | 79.8 | 100 | 101 | 85.5 | 81 | – | – | – | – | – | – | – | –
CC(C)(CCCCc1cccc(CCCCC(C)(C)C(=O)O)c1)C(=O)O [Compound I-32, 6-[3-(5-carboxy-5-methylhexyl)-phenyl]-2,2-dimethylhexanoic acid] | 71.4 | 90 | 92.3 | 91.4 | 104 | 104 | 73.6 | 83.8 | – | – | – | – | – | – | – | –
CC(C)(CCCCc1ccc(CCCCC(C)(C)C(=O)SCCNC(=O)CCNC(=O)[C@H](O)C(C)(C)COP(=O)(O)OP(=O)(O)OC[C@H]2O[C@@H](n3cnc4c(N)ncnc43)[C@H](O)[C@@H]2OP(=O)(O)O)cc1)C(=O)O [Compound I-1-CoA, 6-[4-(5-carboxy-5-methylhexyl)-phenyl]-2,2-dimethylhexanoic acid Coenzyme A ester] | – | – | – | – | – | – | – | – | 36.79% and 32.68% | 73.92% and 70.32% | 84.17% and 82.94% | 88.28% and 79.94% | 51.57% and 45.02% | 78.81% and 72.15% | 73.56% and 73.24% | 77.88% and 76.61%
CC(C)(CCCCc1cccc(CCCCC(C)(C)C(=O)SCCNC(=O)CCNC(=O)[C@H](O)C(C)(C)COP(=O)(O)OP(=O)(O)OC[C@H]2O[C@@H](n3cnc4c(N)ncnc43)[C@H](O)[C@@H]2OP(=O)(O)O)c1)C(=O)O [Compound I-32-CoA, 6-[3-(5-Carboxy-5-methylhexyl)-phenyl]-2,2-dimethylhexanoic acid Coenzyme A Ester] | – | – | – | – | – | – | – | – | 33.27% and 30.67% | 51.10% and 43.67% | 52.06% and 51.61% | 29.98% and 25.40% | 88.39% and 80.61% | 48.46% and 46.83% | 49.53% and 49.21% | 47.31% and 45.01%
